Laboratory results: ChEMBL document CHEMBL5579840, “Optimization of diastereomeric dihydropyridines as antimalarials” (Eur J Med Chem, 2024)

Legend:
[1] = Cytotoxicity against mouse J774.A1 cells; format: toxicity, cell-based
Plasmodium falciparum [2] = test: Antimalarial activity against chloroquine-resistant Plasmodium falciparum K1 infected in erythroctes incubated for 72 hrs by SYBR green 1 based spectrofluorometer; format: functional, organism-based, Erythrocyte
Plasmodium falciparum [3] = test: Antimalarial activity against chloroquine-sensitive Plasmodium falciparum 3D7 infected in erythroctes incubated for 72 hrs by SYBR green 1 based spectrofluorometer; format: functional, organism-based, Erythrocyte
[4] = Plasmodium falciparum, K1, Erythrocyte, 72 h
[5] = Plasmodium falciparum, 3D7, Erythrocyte, 72 h

Compound	EC50 [1] [µM]	EC50 (Plasmodium falciparum [2]; erythrocyte) [µM]	EC50 (Plasmodium falciparum [3]; erythrocyte) [µM]	EC50 (Plasmodium falciparum [2]; [4]) [µM]	EC50 (Plasmodium falciparum [3]; [5]) [µM]
CCOC(=O)C1=C(C)NC2=C(C(=O)OC(c3ccc(OC)c(OC)c3)C2)C1c1ccccc1C (stereo in doubt; 6A)	> 20	2.05	1.27	–	–
CCCC1=C(C(=O)OCC)C(c2ccc(Cl)cc2C)C2=C(CC(c3ccc(OC)c(OC)c3)CC2=O)N1 (stereo in doubt; 44A)	> 20	0.0829	0.0983	–	–
CCOC(=O)C1=C(C)NC2=C(C(=O)OC(c3ccc(OC)c(OC)c3)C2)C1c1ccc(Br)cc1 (stereo in doubt; 12A)	> 20	3.37	1.45	–	–
CCOC(=O)C1=C(C)NC2=C(C(=O)OC(c3ccc(OC)c(OC)c3)C2)C1c1ccc2ccccc2c1 (centres undefined)	> 20	–	–	> 10	> 10
CCOC(=O)C1=C(C)NC2=C(C(=O)OC(c3ccc(Cl)c(OC)c3)C2)C1c1ccccc1Cl (stereo in doubt; 40A)	> 20	2.87	> 7.7	–	–
CCOC(=O)C1=C(C)NC2=C(C(=O)OC(c3ccc(C)cc3)C2)C1c1ccccc1Cl (stereo in doubt; 23A)	> 20	> 5	–	–	> 5
CCCC1=C(C(=O)OCC)C(c2ccccc2Cl)C2=C(CC(c3ccc(OC)c(OC)c3)OC2=O)N1 (stereo in doubt; 32A)	> 20	0.418	0.811	–	–
CCCC1=C(C(=O)OCC)C(c2ccccc2Cl)C2=C(CC(c3ccc(OC)c(OC)c3)CC2=O)N1 (stereo in doubt; 43A)	> 20	0.0265	0.0286	–	–
CCOC(=O)C1=C(C)NC2=C(C(=O)OC(c3cccc(Cl)c3)C2)C1c1ccccc1Cl (centres undefined)	> 20	–	–	> 6	> 6
CCCC1=C(C(=O)OCC)C(c2ccc(Cl)cc2C)C2=C(CC(c3ccc(Cl)c(OC)c3)CC2=O)N1 (stereo in doubt; 46A)	> 20	0.244	0.319	–	–
CCOC(=O)C1=C(C)NC2=C(C(=O)OC(c3ccc(OC)c(OC)c3)C2)C1c1ccc(Cl)cc1 (stereo in doubt; 5A)	> 20	0.633	0.769	–	–
CCOC(=O)C1=C(C)NC2=C(C(=O)CC(c3ccc(OC)c(OC)c3)C2)C1c1ccccc1Cl (stereo in doubt; 2A)	> 20	0.141	0.165	–	–
CCOC(=O)C1=C(C)NC2=C(C(=O)OC(c3ccc(OC)c(OC)c3)C2)C1c1ccccc1Cl (stereo in doubt; 3A)	> 20	1.39	2.33	–	–
CCOC(=O)C1=C(C)NC2=C(C(=O)OC(c3ccc(OC)c(OC)c3)C2)C1c1cccc(OC)c1 (centres undefined)	> 20	–	–	> 10	> 10
COc1cc([C@@H]2c3cc4c(cc3[C@H](O)[C@H]3COC(=O)[C@H]23)OCO4)cc(OC)c1OC [PODOFILOX]	0.25	–	–	–	–
COc1ccc(C2CC3=C(C(=O)O2)C(c2ccccc2Cl)C(C(=O)OCc2ccccc2)=C(C)N3)cc1OC (stereo in doubt; 31A)	> 20	–	–	> 11.8	> 11.8
COC(=O)C1=C(C)NC2=C(C(=O)OC(c3ccc(OC)c(OC)c3)C2)C1c1ccccc1Cl (stereo in doubt; 28A)	> 20	> 8.5	> 8.5	–	–
CCOC(=O)C1=C(C)NC2=C(C(=O)CC(c3ccc(OC)c(OC)c3)C2)C1c1ccc(Cl)cc1 (stereo in doubt; 36A)	> 20	0.221	0.264	–	–
CCOC(=O)C1=C(C)NC2=C(C(=O)OC(c3ccccc3)C2)C1c1ccccc1Cl (stereo in doubt; 17A)	> 20	–	–	–	> 9.5
CCOC(=O)C1=C(C)NC2=C(C(=O)OC(c3ccc(OC)cc3)C2)C1c1ccccc1Cl (stereo in doubt; 26A)	> 20	> 7	> 7	–	–
CCOC(=O)C1=C(C)NC2=C(C(=O)OC(c3ccccc3OC)C2)C1c1ccccc1Cl (stereo in doubt; 24A)	> 20	–	–	> 6	> 6
CCOC(=O)C1=C(C)NC2=C(C(=O)OC(c3ccccc3Cl)C2)C1c1ccccc1Cl (stereo in doubt; 18A)	> 20	–	–	> 5.5	> 5.5
COc1ccc(C2CC3=C(C(=O)O2)C(c2ccccc2Cl)C(C(=O)OC(C)(C)C)=C(C)N3)cc1OC (stereo in doubt; 30A)	> 20	> 13	–	–	> 13
CCOC(=O)C1=C(C)NC2=C(C(=O)CC(c3ccc(Cl)c(OC)c3)C2)C1c1ccccc1Cl (stereo in doubt; 39A)	> 20	0.397	0.63	–	–
COCC1=C(C(=O)OC)C(c2ccc(Cl)cc2)C2=C(CC(c3cc(OC)c(OC)c(OC)c3)OC2=O)N1 (stereo in doubt; 56A)	> 20	–	0.061	0.0624	–
CCOC(=O)C1=C(C)NC2=C(C(=O)OC(c3ccc(OC)c(OC)c3)C2)C1c1ccc(OC)cc1 (centres undefined)	> 20	–	–	> 10	> 10

Compound	EC50 [1] [µM]	EC50 (Plasmodium falciparum [2]; erythrocyte) [µM]	EC50 (Plasmodium falciparum [3]; erythrocyte) [µM]	EC50 (Plasmodium falciparum [2]; [4]) [µM]	EC50 (Plasmodium falciparum [3]; [5]) [µM]
CCCOC(=O)C1=C(C)NC2=C(C(=O)OC(c3ccc(OC)c(OC)c3)C2)C1c1ccccc1Cl (stereo in doubt; 29A)	> 20	> 7	2.36	–	–
COc1ccc(C2CC(=O)C3=C(C2)NC(C)=C(C(=O)O)C3c2ccccc2Cl)cc1OC (stereo in doubt; 27A)	> 20	–	–	–	> 15
CCOC(=O)C1=C(C)NC2=C(C(=O)OC(c3ccc(OC)c(OC)c3)C2)C1c1cccc(C)c1 (centres undefined)	> 20	–	–	> 10	> 10
COCC1=C(C(=O)OC)C(c2ccc(Cl)cc2C)C2=C(CC(c3ccc(OC)c(OC)c3)CC2=O)N1 (stereo in doubt; 51A)	> 20	0.0216	0.0396	–	–
CCOC(=O)C1=C(C)NC2=C(C(=O)OC(c3ccc(OC)c(OC)c3)C2)C1c1cccc(Cl)c1 (centres undefined)	> 20	–	–	> 10	> 10
CCOC(=O)C1=C(C)NC2=C(C(=O)CC(c3ccc(Cl)c(OC)c3)C2)C1c1ccc(Cl)cc1C (stereo in doubt; 41A)	> 20	0.385	0.55	–	–
CCOC(=O)C1=C(C)NC2=C(C(=O)OC(c3ccc(OC)c(OC)c3)C2)C1c1ccccc1 (stereo in doubt; 1A)	> 20	> 7.4	> 7.4	–	–
CCOC(=O)C1=C(C)NC2=C(C(=O)CC(c3ccc(OC)c(OC)c3)C2)C1c1ccc(Cl)cc1C (stereo in doubt; 37A)	> 20	0.0826	0.094	–	–
CCOC(=O)C1=C(C(=O)OCC)C(c2ccccc2Cl)C2=C(CC(c3ccc(OC)c(OC)c3)OC2=O)N1 (stereo in doubt; 33A)	> 20	0.0136	0.0381	–	–
CCOC(=O)C1=C(C)NC2=C(C(=O)OC(c3ccccc3C)C2)C1c1ccccc1Cl (centres undefined)	> 20	–	–	> 5	> 5
CCOC(=O)C1=C(C)NC2=C(C(=O)OC(c3cc(OC)c(OC)c(OC)c3)C2)C1c1ccccc1Cl (stereo in doubt; 54A)	> 20	0.315	0.322	–	–
CCOC(=O)C1=C(C)NC2=C(C(=O)OC(c3ccc(OC)c(OC)c3)C2)C1c1ccccc1OC (stereo in doubt; 9A)	> 20	–	> 5.6	> 5.6	–
CCOC(=O)C1=C(C)NC2=C(C(=O)OC(c3ccc(OC)c(OC)c3)C2)C1c1ccc([N+](=O)[O-])cc1 (stereo in doubt; 13A)	> 20	> 10	> 10	–	–
CCCC1=C(C(=O)OCC)C(c2ccc(Cl)cc2C)C2=C(CC(c3cc(OC)ccc3OC)CC2=O)N1 (stereo in doubt; 48A)	> 20	0.228	0.542	–	–
CCOC(=O)C1=C(C)NC2=C(C(=O)OC(c3cccc(C)c3)C2)C1c1ccccc1Cl (stereo in doubt; 22A)	> 20	–	–	> 5	> 5
CCOC(=O)C1=C(C)NC2=C(C(=O)OC(c3ccc(OC)c(OC)c3)C2)C1c1cccc2ccccc12 (centres undefined)	> 20	–	–	> 10	> 10
CCOC(=O)C1=C(C)NC2=C(C(=O)OC(c3cccc(OC)c3)C2)C1c1ccccc1Cl (stereo in doubt; 25A)	> 20	> 7	2.13	–	–
CCOC(=O)C1=C(C)NC2=C(C(=O)OC(c3ccc(OC)c(OC)c3)C2)C1c1ccc(C)cc1 (stereo in doubt; 8A)	> 20	> 10	> 10	–	–
CCOC(=O)C1=C(C)NC2=C(C(=O)OC(c3ccc(OC)c(OC)c3)C2)C1c1ccc(-c2ccccc2)cc1 (centres undefined)	> 20	–	–	> 10	> 10
CCOC(=O)C1=C(C)NC2=C(C(=O)OC(c3ccc(Cl)c(OC)c3)C2)C1c1ccc(Cl)cc1C (stereo in doubt; 42A)	> 20	> 13	> 13	–	–
CCOC(=O)C1=C(C)NC2=C(C(=O)CC(c3cc(OC)c(OC)c(OC)c3)C2)C1c1ccccc1Cl (mixture of isomers)	–	0.0049	0.0036	–	–
CCOC(=O)C1=C(C)NC2=C(C(=O)CC(c3ccc(OC)c(OC)c3)C2)C1c1ccccc1Cl (mixture of isomers)	–	0.028	0.0171	–	–
CCOC(=O)C1=C(c2ccccc2)NC2=C(C(=O)CC(c3ccc(OC)c(OC)c3)C2)C1c1ccccc1Cl (stereo in doubt; 35A)	> 20	> 10.9	3.72	–	–
CCOC(=O)C1=C(C)NC2=C(C(=O)OC(c3ccc(OC)c(OC)c3)C2)C1c1ccc(Cl)cc1C (stereo in doubt; 38A)	> 20	0.992	> 4.7	–	–
CCCC1=C(C(=O)OCC)C(c2ccc(Cl)cc2C)C2=C(CC(c3ccc(OC)c(OC)c3)OC2=O)N1 (stereo in doubt; 45A)	> 20	0.102	0.148	–	–
CCOC(=O)C1=C(C)NC2=C(C(=O)OC(c3cccc(OC)c3)C2)C1c1ccccc1Cl (mixture of isomers)	–	> 6	2.42	–	–
